Laboratory results from patent US20080107619A1, “Carbohydrate based cellulase inhibitors as feeding stimulants in termites” (University of Florida Research Foundation, Inc., priority 2006, published 2008).
Entries after “also recorded” stand apart in the source; their conditions may differ.

Test system: R. flavipes worker termites
Test: No-choice Petri dish in vivo feeding bioassay (feeding and mortality, 24 days)
Conditions: for Average Feeding in mg per Live Termite (std. err.) days 1-8 / Average Feeding in mg per Live Termite (std. err.) days 9-16 / Average Feeding in mg per Live Termite (std. err.) days 17-24 / Normalized Avg. Totals: 1st ROUND (lab colony); for Normalized Avg. Totals: relative to control [0] average
Protocol: R. flavipes colonies were collected from the University of Florida campus during spring and summer 2006. Colonies were maintained in sealed plastic boxes (30×24×10 cm) at 22±1° C. and 69±1% RH. Colonies were maintained without soil and provisioned with moist brown paper towels and wood shims. Colonies that were acclimated under the above conditions for <2 months are referred to as “field colonies”, while those held for >6 months are referred to as “lab colonies”. Unless otherwise stated, all studies reported here were run with lab colonies.
Two different termite colonies were used. A lab colony was used in bioassays that tested the effects of CBI and FMG; this was the same colony used in cellulase optimization studies, cellulase distribution studies, and for […] determination. The other colony was a field colony, which was used to repeat the FMG assay along side FMCB. The no-choice feeding bioassay was derived from a previously-developed and slightly modified caste differentiation assay reported by M. E. Scharf, et al. in “Caste differentiation responses of two sympatric Reticulitermes termite species to juvenile hormone homologs and synthetic juvenoids in two laboratory assays.” Insectes Soc. […] Acad. Sci. USA, 103 (2006) 4499-504.
Prior to treatment, paper disks 30 were weighed. Treatments and controls were held in complete darkness at approximately 26±1° C. and 69±1% RH. The inhibitor concentrations tested were 75, 50, 25, 10, 5, 1, 0.5, and 0.1 mM (approximately […] wt/wt). For each inhibitor, paper disks were treated with 50 μl of a given concentration. Control disks received 50 μl methanol alone. Treated papers were allowed to dry in a fume hood for 30 min before placing in dishes, wetting with 25 μl water, and adding 15 termites.
Termite feeding on the filter papers was readily observable and quantifiable from the bioassays. Average feeding through the entire bioassay was summed within each replicate and calculated as a percentage of feeding relative to untreated controls, then averaged across replicates.
The experimental design consisted of three replicate dishes per concentration. All assays were carried out for a total of 24 days. Termite mortality and filter paper moisture were monitored every 4th day. Every 8th day, old paper disks were replaced with new ones. These new filter paper disks were treated with identical inhibitor concentrations. The removed filter paper disks 30, showing the results of termite feeding (FIG. 6), were dried and re-weighed. At the end of each assay, data were summarized as cumulative feeding per live termite and cumulative termite mortality. Data were analyzed by non-parametric t-tests (p<0.05) with commercially-available software for use in statistical analysis, designed by SAS Institute, Cary, N.C.
FIGS. 7A-7F provide graphic data on in vivo feeding bioassays conducted with the carbohydrate-based cellulase inhibitors to assess the impact on termite feeding and survivorship. Feeding results are expressed as the cumulative percent of untreated controls through 24 days. Mortality results are expressed as percent mortality after 24 days. […] Error bars represent standard error of the mean.

## OC[C@@H]1[C@@H](O[C@@H]2O[C@H](CO)[C@@H](O)[C@H](O)[C@H]2O)[C@H](O)[C@@H](O)c2nccn21 [CBI, cellobioimidazole]
0.1 mM test conc.
  Average Feeding in mg per Live Termite (std. err.) days 1-8: 0.44 (0.04) mg per Live Termite
  Average Feeding in mg per Live Termite (std. err.) days 9-16: 0.42 (0.11) mg per Live Termite
  Average Feeding in mg per Live Termite (std. err.) days 17-24: 0.45 (0.04) mg per Live Termite
  Normalized Avg. Totals: 1.98
0.5 mM test conc.
  Average Feeding in mg per Live Termite (std. err.) days 1-8: 0.45 (0.03) mg per Live Termite
  Average Feeding in mg per Live Termite (std. err.) days 9-16: 0.51 (0.06) mg per Live Termite
  Average Feeding in mg per Live Termite (std. err.) days 17-24: 0.33 (0.04) mg per Live Termite
  Normalized Avg. Totals: 1.02
1 mM test conc.
  Average Feeding in mg per Live Termite (std. err.) days 1-8: 0.49 (0.12) mg per Live Termite
  Average Feeding in mg per Live Termite (std. err.) days 9-16: 0.53 (0.03) mg per Live Termite
  Average Feeding in mg per Live Termite (std. err.) days 17-24: 0.35 (0.04) mg per Live Termite
  Normalized Avg. Totals: 1.05
5 mM test conc.
  Average Feeding in mg per Live Termite (std. err.) days 1-8: 0.66 (0.05) mg per Live Termite
  Average Feeding in mg per Live Termite (std. err.) days 9-16: 0.55 (0.11) mg per Live Termite
  Average Feeding in mg per Live Termite (std. err.) days 17-24: 0.40 (0.89) mg per Live Termite
  Normalized Avg. Totals: 1.34
10 mM test conc.
  Average Feeding in mg per Live Termite (std. err.) days 1-8: 0.38 (0.05) mg per Live Termite
  Average Feeding in mg per Live Termite (std. err.) days 9-16: 0.43 (0.05) mg per Live Termite
  Average Feeding in mg per Live Termite (std. err.) days 17-24: 0.33 (0.05) mg per Live Termite
  Normalized Avg. Totals: 1.03
25 mM test conc.
  Average Feeding in mg per Live Termite (std. err.) days 1-8: 0.23 (0.01) mg per Live Termite
  Average Feeding in mg per Live Termite (std. err.) days 9-16: 0.47 (0.44) mg per Live Termite
  Average Feeding in mg per Live Termite (std. err.) days 17-24: 0.39 (0.01) mg per Live Termite
  Normalized Avg. Totals: 0.95
50 mM test conc.
  Average Feeding in mg per Live Termite (std. err.) days 1-8: 0.17 (0.03) mg per Live Termite
  Average Feeding in mg per Live Termite (std. err.) days 9-16: 0.41 (0.05) mg per Live Termite
  Average Feeding in mg per Live Termite (std. err.) days 17-24: 0.38 (0.03) mg per Live Termite
  Normalized Avg. Totals: 0.85
0.05 and 0.2% concentrations, after 24 days, FIG. 10B
  highest mortality observed: around 20%
75 mM test conc.
  Average Feeding in mg per Live Termite (std. err.) days 1-8: 0.16 (0.01) mg per Live Termite
  Average Feeding in mg per Live Termite (std. err.) days 9-16: 0.24 (0.05) mg per Live Termite
  Average Feeding in mg per Live Termite (std. err.) days 17-24: 0.27 (0.01) mg per Live Termite
  Normalized Avg. Totals: 0.59
1-5 mM (0.05-0.2% wt/wt), after 24 days
  mortality: approximately 20%
Across tested concentrations 0.1-75 mM, FIGS. 7A-7C, 8A-8B
  Effect on feeding (cumulative percent of untreated controls through 24 days): both inhibitory and stimulatory effects, depending on concentration; also recorded: either inhibitory or stimulatory to feeding, depending on concentration
After 24 days, FIGS. 7D-7F, 10A-10B
  cumulative termite mortality (comparison between inhibitors): substantially greater than the mortality caused by FMG
One replicate of the 0.05% concentration, after 24 days
  mortality, one replicate: over 30%
